Test results: ChEMBL document CHEMBL3425426, “Discovery of DS-1558: A Potent and Orally Bioavailable GPR40 Agonist” (ACS Med Chem Lett, 2015)

What was measured:
[1] = target: Free fatty acid receptor 1 (Homo sapiens, UniProt O14842); experiment: Agonist activity at human GPR40 expressed in CHO cells assessed as calcium flux by FLIPR assay; type: functional, cell-based
[2] = target: T1, Peroxisome proliferator-activated receptor gamma (Homo sapiens, UniProt P37231); experiment: Agonist activity at PPARgamma (unknown origin)
T1 sequence (P37231 whole entry): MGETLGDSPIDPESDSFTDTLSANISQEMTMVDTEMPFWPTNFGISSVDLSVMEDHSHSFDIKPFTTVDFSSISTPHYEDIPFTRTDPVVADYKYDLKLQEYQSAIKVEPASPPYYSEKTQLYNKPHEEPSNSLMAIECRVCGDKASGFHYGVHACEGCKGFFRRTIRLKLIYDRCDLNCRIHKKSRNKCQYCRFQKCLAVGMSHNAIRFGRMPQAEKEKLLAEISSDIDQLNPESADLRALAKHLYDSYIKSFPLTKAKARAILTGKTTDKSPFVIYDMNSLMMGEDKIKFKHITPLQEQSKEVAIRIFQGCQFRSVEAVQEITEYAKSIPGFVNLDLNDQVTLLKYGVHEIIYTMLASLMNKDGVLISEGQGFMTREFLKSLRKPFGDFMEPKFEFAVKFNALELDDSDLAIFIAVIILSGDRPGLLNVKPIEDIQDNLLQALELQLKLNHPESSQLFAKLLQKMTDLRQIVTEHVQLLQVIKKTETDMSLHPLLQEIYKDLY

[3] = target: T2, Peroxisome proliferator-activated receptor gamma (Homo sapiens) (UniProt P37231); experiment: Agonist activity at PPARgamma (unknown origin) relative to rosiglitazone
T2 sequence (whole entry): T1 sequence (P37231 whole entry)

Sequence of Free fatty acid receptor 1 (O14842 whole entry): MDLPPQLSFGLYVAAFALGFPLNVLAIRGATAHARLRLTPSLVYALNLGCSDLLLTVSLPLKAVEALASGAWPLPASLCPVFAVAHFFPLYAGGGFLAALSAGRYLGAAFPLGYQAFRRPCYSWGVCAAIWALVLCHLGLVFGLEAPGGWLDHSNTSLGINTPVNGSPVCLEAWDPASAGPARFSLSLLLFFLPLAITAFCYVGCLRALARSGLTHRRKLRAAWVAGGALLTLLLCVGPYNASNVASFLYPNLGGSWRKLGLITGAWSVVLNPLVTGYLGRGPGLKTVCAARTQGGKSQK

SMILES	EC50 [1] [µM]	EC50 [2] [µM]	Emax [3] [%]
CCO[C@@H](CC(=O)O)c1ccc(O[C@H]2CCc3c2cccc3C(F)(F)F)cc1	0.019		
CCO[C@H](CC(=O)O)c1ccc(O[C@@H]2CCc3c2cccc3C(F)(F)F)cc1	0.33		
CCOC(CC(=O)O)c1ccc(OCc2ccc(Cl)c(Cl)c2)cc1 (racemic)	0.0062		
CCO[C@H](CC(=O)O)c1ccc(O[C@H]2CCc3c2cccc3C(F)(F)F)cc1	2.6		

Continued, values first:

EC50 [1] [µM]	EC50 [2] [µM]	Emax [3] [%]	SMILES
0.0039			CCO[C@@H](CC(=O)O)c1ccc(OCc2ccc(Cl)c(Cl)c2)cc1
0.063			CCOc1cccc2c1CC[C@H]2Oc1ccc([C@H](CC(=O)O)OCC)cc1
0.36			CCO[C@H](CC(=O)O)c1ccc(OCc2ccc(Cl)c(Cl)c2)cc1
0.0053	10.4	11.3	CCO[C@@H](CC(=O)O)c1ccc(OCc2ccc(C(F)(F)F)cc2)cc1
0.083			CCO[C@@H](CC(=O)O)c1ccc(OC2Cc3ccccc3C2)cc1
